From US12251366B1, “Sulforaphane-cysteine for wound healing in diabetic subjects” (KUWAIT UNIVERSITY, priority 2024, dated 2025)
“Also recorded” adds a separate entry of the source.

Legend:
[1] = tested on: bone marrow-derived macrophages; test: LPS-induced cytokines in bone marrow-derived macrophages; format: cell-based, mouse
Method: Additional tests were conducted to determine whether SFN-Cys also suppresses TNF-α and IL-6 expression at the mRNA level. […] Thioglycollate-elicited mouse peritoneal macrophages were prepared from C57BL (8-10 weeks old) and cultured in RPMI 1640 with 10% (v/v) FCS Bone marrow-derived macrophages were generated in RPMI medium containing M-CSF (10 ng/mL) according to previously published procedure. For cytokine ELISA assay, cells were seeded at 5×10^5 in 12-well plates, whereas for mRNA expression, the cells were seeded at […]. LPS and used at a dose of 100 ng/mL. Similarly. SFN-Cys was used at a concentration of 1.5 umol/L.

[2] = Pain threshold in diabetic rats (diabetic neuropathy); format: in vivo; details: 5 μmol/rat
Text: (§1) Therapeutic rational was considered for SFN-Cys effectiveness in the following pathological conditions: Sarcopenia-SFN-Cys increased muscle weight in diabetic mice, see FIGS. 4A and 4B; Cardiac fibrosis-SFN-Cys inhibits transforming growth factor beta (TGF-β) expression, see FIG. 4C; Erectile dysfunction-SFN-Cys increased endothelial nitric oxide activity and expression in corpus cavernosum.

[3] = tested on: NQO1; test: mRNA expression of Nrf2 target gene NQO1 in fibroblasts; format: cell-based, rat; details: diabetic fibroblasts, 1.5 μM
Method: To better characterize how SFN-Cys impacts cellular antioxidant levels, the ability of SFN-Cys to regulate the transcription factor nuclear factor erythroid 2-related factor 2 (Nrf2) was assessed, which is a master regulator of the antioxidative stress response that induces the expression of antioxidant proteins such as heme oxygenase (HO) and NAD(P)H dehydrogenase (quinine; NQO1) and key enzymes in the glutathione system. In this context, Nrf2 transcriptional activity was first measured using a vector encoding luciferase driven by the NQO1 promoter. […] Administration of SNF-Cyst at the above indicated concentration (1.5 μM, the lowest effective concentration) ameliorated diabetes-induced suppression of the Nrf2 activity and Nrf2-target genes including HO and NQO1 (FIG. 2A-D).
(§2) Total RNA from cells or frozen sponge implants was extracted using the Trizol reagent (Invitrogen), and the RNA integrity was verified by agarose gel electrophoresis. […] The amplified sequences were assessed using the ABI 7500 Prism Sequence Detection system machine. The results were expressed as mRNA levels normalized to 18S or GAPDH in each sample.

[4] = tested on: endothelial nitric oxide; test: Endothelial nitric oxide activity and expression in corpus cavernosum; format: in vivo
Text: as §1

[5] = tested on: full-thickness wounds; test: In vivo wound closure assay, excisional wound healing rat model; parameters: species or system GK rats; details: for mitigation of diabetes-related impairment of wound healing compared with VEGF: animal model of (aged) type 2 diabetes; for wound closure / wound healing: rats, topical 1.5 μmol/wound in Pluronic acid every other day, day-0 through day-7
Method: Successful wound healing necessitates a series of tightly coordinated and overlapping processes including inflammation, new tissue formation and remodeling. Fibroblasts, in response to growth factors-released mostly by macrophages, migrate to the site of injury, where they proliferate and lay down the extracellular matrix (ECM). Consequently, this facilitates cell migration and tissue reconstruction. The effect of a therapeutic concentration of SFN-Cys (1.5 μM) was investigated on the proliferation of fibroblasts isolated from the granulation tissue of control and diabetic wounds. Similarly, the effect of SFN-Cys on cell migration in the in vitro wound closure assay was also considered. […] Accordingly, in vivo wound closure properties of SFN-Cys were examined using an excisional wound healing rat model. SFN-Cys containing Pluronic acid was topically applied to the wound at a dose of 1.5 μmol concentration and the wound closure area was digitally photographed and quantified. Digital photographs were obtained on day-0 through day-7 of post wounding. […] In this context, the wound healing time-course was faster in SFN-Cys containing Pluronic acid than the Pluronic acid alone (FIG. 3C). […] VEGF is a well-established enhancer of the proliferative phase of healing.
For wounding experiments, 15-18-month female GK rats were anesthetized with intraperitoneal injection of ketamine/xylazine and full-thickness wounds were made in the mid dorsal skin with 8-mm disposable punches. To evaluate the effect of SFN-Cys on wound closure, the drug was dissolved initially with DMSO and then diluted with a 25% Pluronic acid solution at a dose of 1.5 μmol/wound; applied topically to the wound every other day. The wounds were photographed at 0-, 3- or 7-days post-wounding.

[6] = tested on: NQO1; test: Tissue mRNA expression of NQO1 after SFN-Cys diet; format: in vivo; details: heart, kidney, liver and skin; SFN-Cys diet 1.5-2.5 μmol/mouse, 21 days
Method: Testing the pharmacodynamic and toxicodynamic properties of SFN-Cys dictated the mixing SFN-Cys with a powdered diet. The estimated dose delivered by this diet was 1.5-2.5 μmol/mouse (n=4). The SFN-Cys diet was stored at 4° C. and the feeders were refilled daily for the duration of the study (21 days). Corresponding animals received food without the drug.
For dietary treatment with SFN-Cys, the SFN-Cys was mixed with a powdered diet (7.5 mg of SFN-Cys per kg of food). The estimated dose delivered by this diet was about 1.0-1.5 mg/kg. The diet was stored at 4° C. and the feeders were refilled daily. Control animals received diet alone. Body weights were recorded twice a week and at the termination of the study, blood was drawn in EDTA-containing tubes, plasma was collected by centrifugation and stored at −80° C. until analysis.
as §2

[7] = tested on: neuronal, vascular, muscle, cardiac and stem cells; test: Protection of cells from oxidative stress and inflammation-induced apoptotic cell death; format: cell-based; details: at certain concentrations
Text: Thus, SNF-Cys may have a therapeutic benefit in the following conditions in addition to impaired wound healing: Sarcopenia, Fat grafting, Psoriasis, Nerve regeneration and diabetic neuropathy, Erectile dysfunction, and Cardiac fibrosis.

[8] = tested on: fibroblasts (CF, DF); test: In vitro wound healing repair assay (cell migration); format: cell-based, rat; details: 1.5 μM, 24 hrs
Method: Successful wound healing necessitates a series of tightly coordinated and overlapping processes including inflammation, new tissue formation and remodeling. Fibroblasts, in response to growth factors-released mostly by macrophages, migrate to the site of injury, where they proliferate and lay down the extracellular matrix (ECM). Consequently, this facilitates cell migration and tissue reconstruction. The effect of a therapeutic concentration of SFN-Cys (1.5 μM) was investigated on the proliferation of fibroblasts isolated from the granulation tissue of control and diabetic wounds. Similarly, the effect of SFN-Cys on cell migration in the in vitro wound closure assay was also considered. […] Accordingly, in vivo wound closure properties of SFN-Cys were examined using an excisional wound healing rat model. SFN-Cys containing Pluronic acid was topically applied to the wound at a dose of 1.5 μmol concentration and the wound closure area was digitally photographed and quantified. Digital photographs were obtained on day-0 through day-7 of post wounding. […] In this context, the wound healing time-course was faster in SFN-Cys containing Pluronic acid than the Pluronic acid alone (FIG. 3C). […]
Fibroblasts (1×10^5/well) were cultured until confluence. […] The closure of the wounded area was calculated using Image J software (NIH). Data are expressed as a percent of wound closure.

## C[S+]([O-])CCCCNC(=S)SCC(N)C(=O)O (stereo not drawn) [SFN-Cys, Sulforaphane-Cysteine]
[1]
  suppression of LPS-induced TNF-α and IL-6 in bone marrow-derived macrophages: analogous results were also seen
[2]
  pain threshold: elevated
[3]
  mRNA expression of Nrf2 target gene NQO1: ameliorated
[4]
  endothelial nitric oxide activity and expression: increased
[5]
  mitigation of diabetes-related impairment of wound healing compared with VEGF: better than vascular endothelial growth factor (VEGF)
  wound closure / wound healing: enhanced wound closure; also recorded: ameliorated; also recorded: increases wound healing potential both in control and diabetic subjects
[5]; listed as SNF-Cys
  mitigation of diabetes-related impairment of wound healing compared with VEGF: more efficacious than vascular endothelial growth factor (VEGF)
  wound closure / wound healing: ameliorated
[6]
  mRNA expression of NQO1 relative to control: about 3 folds
[7]
  protection from oxidative state and low-grade inflammation-induced apoptotic cell death: protects
[8]
  percentage of increase in cell migration, diabetics versus controls: greater in diabetics as compared to controls
[8]; CF and DF
  cell migration (in vitro wound closure): enhanced cell migration not only in control but also in diabetic fibroblasts
